Results taken from US9284286B2, “Specific carboxamides as KCNQ2/3 modulators” (GRÜNENTHAL GMBH, priority 2012, dated 2016).

Molecular target: T1, KCNQ2/3 channels (Homo sapiens, UniProt O43525+O43526)
T1 construct: expressed in transfected cells; host or cells: CHO-K1
Test: Fluorescence assay using a voltage sensitive dye (fluorimetry)
Assay type: cell-based
Conditions: CHO-K1 cells expressing KCNQ2/3 channels; for Emax: relative to retigabine = 100%, read-out: Fluorimetry % Efficacy (retigabine = 100%); for EC50: voltage-sensitive dye, KCl depolarisation, read-out: Fluorimetry EC50/IC50
Description: Pharmacological Experiments Fluorescence Assay Using a Voltage Sensitive Dye (Fluorimetry)
Human CHO-K1 cells expressing KCNQ2/3 channels are cultivated adherently at 37° C., 5% CC2 and 95% humidity in cell culture bottles (e.g. 80 cm^2 TC flasks, Nunc) with DMEM-high glucose (Sigma Aldrich, D7777) including 10% FCS (PAN Biotech, e.g. 3302-P270521) or alternatively MEM Alpha Medium (1×, liquid, Invitrogen, #22571), 10% fetal calf serum (FCS) (Invitrogen, #10270-106, heat-inactivated) and the necessary selection antibiotics.
Before being sown out for the measurements, the cells are washed with 1×DPBS buffer Ca^2+/Mg^2+-free (e.g. Invitrogen, #14190-094) and detached from the bottom of the culture vessel by using Accutase (PAA Laboratories, #L11-007) (incubation with Accutase for 15 min at 37° C.). The cell number is determined using a CASY™ cell counter (TCC, Schärfe System). Depending on the optimal density for each individual cell line, 20,000-30,000 cells/well/100 μl are seeded onto 96-well Corning™ CeIIBIND™ assay plates (Flat Clear Bottom Black Polystyrene Microplates, #3340). Freshly seeded cells are then left to settle for one hour at room temperature, followed by incubation for 24 hours at 37° C., 5% CO2 and 95% humidity.
The voltage-sensitive fluorescent dye from the Membrane Potential Assay Kit (Red™ Bulk format part R8123 for FLIPR, MDS Analytical Technologies™) is prepared by dissolving the contents of one vessel Membrane Potential Assay Kit Red Component A in 200 ml of extracellular buffer (ES buffer, 120 mM NaCl, 1 mM KCl, 10 mM HEPES, 2 mM CaCl2, 2 mM MgCl2, 10 mM glucose; pH 7.4). After removal of the nutrient medium, the cells are washed once with 200 μl of ES buffer, then loaded for 45 min at room temperature in 100 μl of dye solution in the dark.
Fluorescence measurements are carried out in a BMG Labtech FLUOstar™, BMG Labtech NOVOstar™ or BMG Labtech POLARstar™ instrument (525 nm excitation, 560 nm emission, Bottom Read mode). After incubation with the dye, 50 μl of the test substances in the desired concentrations, or 50 μl of ES buffer for control purposes, are applied to the wells of the assay plate and incubated for 30 min at room temperature while being shielded from light. The fluorescence intensity of the dye is then measured for 5 min and the fluorescence value F1 of each well is thus determined at a given, constant time. 15 μl of a KCl solution are then added to each well (final concentration of potassium ions 92 mM). The change in fluorescence intensity is subsequently monitored until all the relevant values have been obtained (mainly 5-30 min). At a given time post KCl application, a fluorescence value F2 is determined, in this case at the time of the fluorescence peak.
For calculation, the fluorescence intensity F2 is corrected for the fluorescence intensity F1, and the activity (ΔF/F) of the target compound on the potassium channel is determined as follows:
In order to determine whether a substance has agonistic activity,
[formula] can be related to
[formula] of control wells.
[formula] is determined by adding to the well only the buffer solution instead of the test substance, determining the value F1K of the fluorescence intensity, adding the potassium ions as described above, and measuring a value F2K of the fluorescence intensity. F2K and F1K are then calculated as follows: […]
A substance has an agonistic activity on the potassium channel if
[formula] is greater than
Independently of the comparison of
[formula] it is possible to conclude that a target compound has agonistic activity if
[formula] increases dose dependently.
Calculations of EC50 and IC50 values are carried out with the aid of ‘Prism v4.0’ software (GraphPad Software™).

Compound | Emax [%] | EC50 [nM]
CC(C)(C)CCNC(=O)c1ccccc1SCCCc1ccc(F)cc1 [Example 2, N-(3,3-Dimethyl-butyl)-2-[3-(4-fluorophenyl)-propylsulfanyl]-benzamide] | 186 | 501
Cc1nc(SCCC(F)(F)c2ccc(F)cc2)c(C(=O)NCc2ccc(F)cc2)s1 [Example 15, 4-[[3,3-Difluoro-3-(4-fluorophenyl)-propyl]sulfanyl]-N-[(4-fluorophenyl)-methyl]-2-methyl-thiazole-5-carboxylic acid amide] | 83 | 231
CC(C)CCNC(=O)c1ncccc1SCCC(F)(F)c1ccc(F)cc1 [Example 3, 3-[[3,3-Difluoro-3-(4-fluorophenyl)-propyl]sulfanyl]-N-(3-methyl-butyl)-pyridine-2-carboxylic acid amide] | 118 | 1590
O=C(NCc1ccc(F)cc1)c1cncnc1SCCC(F)(F)c1ccc(F)cc1 [Example 11, 4-[[3,3-Difluoro-3-(4-fluorophenyl)-propyl]sulfanyl]-N-[(4-fluorophenyl)-methyl]-pyrimidine-5-carboxylic acid amide] | 112 | 51
O=C(NCc1ccc(F)cc1)c1cnccc1SCCC(F)(F)c1ccc(F)cc1 [Example 6, 4-[[3,3-Difluoro-3-(4-fluorophenyl)-propyl]sulfanyl]-N-[(4-fluorophenyl)-methyl]-pyridine-3-carboxylic acid amide] | 121 | 563
O=C(NCc1ccc(F)cc1)c1ccnnc1SCCC(F)(F)c1ccc(F)cc1 [Example 13, 3-[[3,3-Difluoro-3-(4-fluorophenyl)-propyl]sulfanyl]-N-[(4-fluorophenyl)-methyl]-pyridazine-4-carboxylic acid amide] | 100 | 264

Continued, values first:

Emax [%] | EC50 [nM] | Compound
228 | 849 | CC(C)CCNC(=O)c1cnccc1SCCC(F)(F)c1ccc(F)cc1 [Example 5, 4-[[3,3-Difluoro-3-(4-fluorophenyl)-propyl]sulfanyl]-N-(3-methyl-butyl)-pyridine-3-carboxylic acid amide]
211 | 61 | CC(C)CCNC(=O)c1cncnc1SCCC(F)(F)c1ccc(F)cc1 [Example 10, 4-[[3,3-Difluoro-3-(4-fluorophenyl)-propyl]sulfanyl]-N-(3-methyl-butyl)-pyrimidine-5-carboxylic acid amide]
199 | 521 | CC(C)CCNC(=O)c1nccnc1SCCC(F)(F)c1ccc(F)cc1 [Example 9, 3-[[3,3-Difluoro-3-(4-fluorophenyl)-propyl]sulfanyl]-N-(3-methyl-butyl)-pyrazine-2-carboxylic acid amide]
203 | 156 | CC(C)CCNC(=O)c1ccccc1SCCC(F)(F)c1ccc(F)cc1 [Example 1, 2-[[3,3-Difluoro-3-(4-fluorophenyl)-propyl]sulfanyl]-N-(3-methyl-butyl)-benzamide]
203 | 427 | CC(C)CCNC(=O)c1ccnnc1SCCC(F)(F)c1ccc(F)cc1 [Example 12, 3-[[3,3-Difluoro-3-(4-fluorophenyl)-propyl]sulfanyl]-N-(3-methyl-butyl)-pyridazine-4-carboxylic acid amide]
197 | 1400 | CC(C)CCNC(=O)c1ccncc1SCCC(F)(F)c1ccc(F)cc1 [Example 7, 3-[[3,3-Difluoro-3-(4-fluorophenyl)-propyl]sulfanyl]-N-(3-methyl-butyl)-pyridine-4-carboxylic acid amide]
